Patent US9850227B2 (YUHAN CORPORATION, priority 2011, dated 2017)
Counter-ions that a name gives are not always drawn.

Target: T1, human 5-HT4(a) (Homo sapiens, UniProt Q13639)
T1 construct: host or cells: GeneBIAzer HTR4-CRE-bla CHO-K1 cells
Assay: Evaluation of agonistic activity in CHO-K1 cells expressing human 5-HT4(a) (GeneBIAzer HTR4-CRE-bla CHO-K1 cells, beta-lactamase fluorescence ratio, EC50 from 8 concentrations)
Assay type: cell-based
Summary of the method: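 HTR4-CRE-bla CHO-K1 cells (10^4 per well, overnight in 1% FBS medium) exposed to compound for 5 h, then beta-lactamase substrate 2 h in the dark. Fluorescence ratio at 465/535 nm after 410 nm excitation; EC50 by non-linear regression over 8 concentrations.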

T1 sequence (Q13639 1-387 isoform Q13639-2): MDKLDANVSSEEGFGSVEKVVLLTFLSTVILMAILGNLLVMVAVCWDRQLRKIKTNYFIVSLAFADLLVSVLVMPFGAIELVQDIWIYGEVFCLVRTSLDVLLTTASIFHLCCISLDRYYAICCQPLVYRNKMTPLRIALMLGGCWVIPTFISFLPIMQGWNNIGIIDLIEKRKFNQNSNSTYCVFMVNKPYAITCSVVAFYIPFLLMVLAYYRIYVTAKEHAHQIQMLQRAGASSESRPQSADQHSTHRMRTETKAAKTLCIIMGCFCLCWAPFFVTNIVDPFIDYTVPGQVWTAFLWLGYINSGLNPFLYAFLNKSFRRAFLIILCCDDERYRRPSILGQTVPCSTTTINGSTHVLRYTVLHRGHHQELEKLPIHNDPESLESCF

EC50 [nM]	Structure (SMILES)
0.049	CCCCc1cc(N2CCC[C@@H](NCC(C)(C)C)C2)nc(Nc2ccc(C)c(C#N)c2)n1 [Example 304, (R)-5-({4-butyl-6-[3-(neopentylamino)piperidin-1-yl]pyrimidin-2-yl}amino)-2-methylbenzonitrile]
0.039	CCCc1cc(N2CCCCC2CCO)nc(Nc2ccc(C)c([N+](=O)[O-])c2)n1 (stereo not drawn) [Example 174, 2-{1-[2-(4-methyl-3-nitrophenylamino)-6-propylpyrimidin-4-yl]piperidin-2-yl}ethanol]
0.016	CCCc1cc(N2CCC[C@@H](NC(=O)CO)C2)nc(Nc2ccc(Cl)c(N)c2)n1 [Example 251, (R)—N-{1-[2-(3-amino-4-chlorophenylamino)-6-propylpyrimidin-4-yl]piperidin-3-yl}-2-hydroxyacetamide]
0.057	CCCc1cc(N2CCC[C@@H](NC(=O)CO)C2)nc(Nc2ccc(C)c(Cl)c2)n1 [Example 253, (R)—N-{1-[2-(3-chloro-4-methylphenylamino)-6-propylpyrimidin-4-yl]piperidin-3-yl}-2-hydroxyacetamide]
0.018	CCCc1cc(N2CCC[C@@H](NC(=O)CO)C2)nc(Nc2ccc(N)c(C(F)(F)F)c2)n1 [Example 248, (R)—N-(1-{2-[4-amino-3-(trifluoromethyl)phenylamino]-6-propylpyrimidin-4-yl}piperidin-3-yl)-2-hydroxyacetamide]
0.015	CCCc1cc(N2CCC[C@H](NCC)C2)nc(Nc2ccc(C)c(C#N)c2)n1 [Example 296, (S)-5-[4-(3-ethylaminopiperidin-1-yl)-6-propylpyrimidin-2-ylamino]-2-methylbenzonitrile dihydrochloride]
0.3	CCCc1cc(N2CCCCC2CCO)nc(Nc2ccc(F)c([N+](=O)[O-])c2)n1 (stereo not drawn) [Example 142, 2-{1-[2-(4-fluoro-3-nitrophenylamino)-6-propylpyrimidin-4-yl]piperidin-2-yl}ethanol]
0.023	CCCc1cc(N2CCC[C@@H](NCC(C)(C)C)C2)nc(Nc2ccc(C)c(C#N)c2)n1 [Example 211, (R)-2-methyl-5-{4-[3-(neopentylamino)piperidin-1-yl]-6-propylpyrimidin-2-ylamino}benzonitrile]
0.31	CCCc1cc(N2CCCCC2CCO)nc(Nc2cccc(C(F)(F)F)c2)n1 (stereo not drawn) [Example 147, 2-{1-[6-propyl-2-(3-trifluoromethylphenylamino)pyrimidin-4-yl]piperidin-2-yl}ethanol]
0.025	CCCCc1cc(N2CCC[C@@H](NC)C2)nc(Nc2ccc(C)c(OC)c2)n1 [Example 318, (R)-4-butyl-N-(3-methoxy-4-methylphenyl)-6-[3-(methylamino)piperidin-1-yl]pyrimidin-2-amine]
0.016	CCCc1cc(N2CCC[C@@H](N(CC)CC)C2)nc(Nc2ccc(C)c(C#N)c2)n1 [Example 269, (R)-5-[4-(3-diethylaminopiperidin-1-yl)-6-propylpyrimidin-2-ylamino]-2-methylbenzonitrile]
0.049	CCCc1cc(N2CCCCC2CCO)nc(Nc2ccc(C)c(C#N)c2)n1 (stereo not drawn) [Example 177, 5-{4-[2-(2-hydroxyethyl)piperidin-1-yl]-6-propylpyrimidin-2-ylamino}-2-methylbenzonitrile]
0.448	CCCCc1cc(N2CCC[C@@H](N)C2)nc(Nc2ccc(C)c(F)c2)n1 [Example 344, (R)-4-(3-aminopiperidin-1-yl)-6-butyl-N-(3-fluoro-4-methylphenyl)pyrimidin-2-amine]
0.135	CCCCc1cc(N2CCC[C@@H](N)C2)nc(Nc2ccc(C)c(N)c2)n1 [Example 346, (R)—N^1-[4-(3-aminopiperidin-1-yl)-6-butylpyrimidin-2-yl]-4-methylbenzene-1,3-diamine]
0.021	CCCc1cc(N2CCC[C@@H](N)C2)nc(Nc2ccc(Cl)c(N)c2)n1 [Example 262, (R)—N^1-[4-(3-aminopiperidin-1-yl)-6-propylpyrimidin-2-yl]-4-chlorobenzene-1,3-diamine]
